Measured values from the NIST ThermoML archive (doi:10.1016/j.jct.2011.06.020).

Test: refractive index (Na D-line) (dimensionless); xn = mol fraction of the nth substance listed
Details: 101 kPa, Liquid, Standard Abbe refractometry

CN1CCNCC1 [N-methylpiperazine] + O
refractive index
Details	293.15 K	298.15 K	303.15 K	308.15 K	313.15 K	323.15 K	328.15 K	333.15 K
x1 = 0.0521	1.374	1.373	1.373	1.372	1.371	1.369	1.368	1.366
x1 = 0.0725	1.389	1.388	1.387	1.386	1.384	1.382	1.381	1.379
x1 = 0.1039	1.406	1.405	1.403	1.402	1.401	1.397	1.396	1.396
x1 = 0.2091	1.44	1.438	1.436	1.434	1.432	1.428	1.427	1.425
x1 = 0.3101	1.453	1.451	1.449	1.447	1.445	1.441	1.439	1.437
x1 = 0.4096	1.459	1.457	1.455	1.453	1.451	1.446	1.444	1.442
x1 = 0.5109	1.462	1.46	1.458	1.456	1.454	1.449	1.447	1.445
x1 = 0.608	1.464	1.462	1.46	1.457	1.455	1.451	1.448	1.446
x1 = 0.7065	1.465	1.463	1.461	1.458	1.456	1.451	1.449	1.447
x1 = 0.8069	1.466	1.463	1.461	1.459	1.456	1.452	1.449	1.447
x1 = 0.8819	1.466	1.464	1.461	1.459	1.457	1.452	1.449	1.447
x1 = 1	1.466	1.464	1.461	1.459	1.457	1.452	1.449	1.447
